The text below walks through data of patent publication US11981661B2, “Heterocyclic compounds” (Hoffmann-La Roche Inc., priority 2020, dated 2024).

The test has as its target T1, MAGL (Homo sapiens, UniProt Q99685).
T1 sequence (Q99685 1-303): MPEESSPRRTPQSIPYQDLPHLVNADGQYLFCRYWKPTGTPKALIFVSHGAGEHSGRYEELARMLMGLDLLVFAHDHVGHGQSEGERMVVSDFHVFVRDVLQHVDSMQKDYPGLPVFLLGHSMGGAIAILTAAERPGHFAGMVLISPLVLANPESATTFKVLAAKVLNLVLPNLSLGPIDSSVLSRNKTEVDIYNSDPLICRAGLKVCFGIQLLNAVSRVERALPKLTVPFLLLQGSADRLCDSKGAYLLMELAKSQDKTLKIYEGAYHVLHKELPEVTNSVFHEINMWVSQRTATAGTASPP
The test is described as follows: 2-AG assay (MAGL inhibitory activity, hydrolysis of 2-arachidonoylglycerol followed by mass spectrometry). To be noted: 50 pM MAGL, 8 μM 2-arachidonoylglycerol, 15 min preincubation, 30 min incubation at RT, concentration range 12.5 μM to 0.8 pM. It counts as biochemical. In a few lines:
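Activity derived from the arachidonic acid/d8-arachidonic acid MS intensity ratio after acetonitrile quench. Reaction: 8 μM 2-AG substrate with 50 pM MAGL, 30 min at RT, following 15 min RT compound preincubation; buffer 50 mM TRIS, 1 mM EDTA, 0.01% Tween; final compound range 12.5 μM to 0.8 pM.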

What is called IC50 is the midpoint of a concentration-inhibition curve. Read a high IC50 as weaker potency. Take `O=C1N[C@H](CCC(=O)N2CC(c3ccc(N(CC4CC4)c4ccccc4)cc3)C2)CO1` [Example 89, (4R)-4-[3-[3-[4-[N-(Cyclopropylmethyl)anilino]phenyl]azetidin-1-yl]-3-oxo-propyl] oxazolidin-2-one]: the IC50 is 0.02 nM. In other words, the picomolar range.
In the case of `O=C1N[C@H](CCC(=O)N2CC(c3ccc(N(c4ccccc4)c4ccccc4)cc3)C2)CO1` [Example 90, (4R)-4-[3-Oxo-3-[3-[4-(N-phenylanilino)phenyl]azetidin-1-yl]propyl] oxazolidin-2-one], the IC50 worked out at 0.02 nM. This counts as picomolar.
With `CC(C)(C)c1ccc(C2CN(C(=O)CC[C@@H]3COC(=O)N3)C2)cn1` [Example 91, (4R)-4-[3-[3-(6-tert-Butyl-3-pyridyl)azetidin-1-yl]-3-oxo-propyl]oxazolidin-2-one], the IC50 was found to be 357 nM.
`COc1ccc(N(C)c2ccc(C3CN(C(=O)CC[C@@H]4COC(=O)N4)C3)cn2)nc1` [Example 92, (4R)-4-[3-[3-[6-[(5-Methoxy-2-pyridyl)-methyl-amino]-3-pyridyl]azetidin-1-yl]-3-oxo-propyl]oxazolidin-2-one] registered an IC50 of 293 nM.
In the case of `CN(c1ccccc1)c1ccc(C2CN(C(=O)CC[C@@H]3COC(=O)N3)C2)cn1` [Example 93, (4R)-4-[3-[3-[6-(N-Methyl-anilino)-3-pyridyl]azetidin-1-yl]-3-oxo-propyl]oxazolidin-2-one], inhibition was half-maximal at 173 nM (IC50).
Compound `CC(C)c1ccc(N(C)c2ccc(C3CN(C(=O)CC[C@@H]4COC(=O)N4)C3)cn2)cc1` [Example 94, (4R)-4-[3-[3-[6-(4-Isopropyl-N-methyl-anilino)-3-pyridyl]azetidin-1-yl]-3-oxo-propyl]oxazolidin-2-one] registered an IC50 of 10 nM.
`O=C1N[C@H](CCC(=O)N2CC(c3ccc(N(CC4CC4)c4ccccc4)nc3)C2)CO1` [Example 95, (4R)-4-[3-[3-[6-[N-(Cyclopropyl-methyl)anilino]-3-pyridyl]azetidin-1-yl]-3-oxo-propyl]oxazolidin-2-one] displayed a half-maximal inhibitory concentration (IC50) of 0.35 nM.
The compound `COCCN(c1ccc(C2CN(C(=O)CC[C@@H]3COC(=O)N3)C2)cc1)c1cccnc1` [Example 96, (4R)-4-[3-[3-[4-[2-Methoxyethyl(3-pyridyl)amino]phenyl]azetidin-1-yl]-3-oxo-propyl]oxazolidin-2-one] registered an IC50 of 2 nM. This IC50 is about 5.7-fold higher than that of the compound before.
`O=C1N[C@H](CCC(=O)N2CC3(C2)CN(S(=O)(=O)c2ccc(F)cc2C(F)(F)F)C3)CO1` [Example 97, (4R)-4-[3-[2-[4-Fluoro-2-(trifluoromethyl)phenyl]sulfonyl-2,6-diazaspiro[3.3]heptan-6-yl]-3-oxo-propyl] oxazolidin-2-one] returned an IC50 of 350 nM.
`CC(C)(C)CS(=O)(=O)N1CC2(CN(C(=O)CC[C@@H]3COC(=O)N3)C2)C1` [Example 98, (4R)-4-[3-[2-(2,2-Dimethylpropyl-sulfonyl)-2,6-diazaspiro[3.3]heptan-6-yl]-3-oxo-propyl]oxazolidin-2-one]: the IC50 was 3370 nM.
`O=C1N[C@H](CCC(=O)N2CC(c3ccc(N4CC(OCC(F)(F)F)C4)cc3)C2)CO1` [Example 99, (4R)-4-[3-Oxo-3-[3-[4-[3-(2,2,2-trifluoro-ethoxy)azetidin-1-yl]phenyl]azetidin-1-yl]propyl] oxazolidin-2-one]: the IC50 came out at 5 nM. Compared with the last compound, the IC50 is about 670-fold lower.
The value for `O=C1N[C@H](CCC(=O)N2CC(c3ccc(N4CC(C(F)(F)F)C4)cc3)C2)CO1` [Example 100, (4R)-4-[3-Oxo-3-[3-[4-[3-(trifluoromethyl)azetidin-1-yl]phenyl]azetidin-1-yl]propyl]oxazolidin-2-one] was 7 nM; that for `O=C1N[C@H](CCC(=O)N2CC(c3cnc(C4(C(F)(F)F)CC4)nc3)C2)CO1` [Example 101, (4R)-4-[3-Oxo-3-(3-[2-[1-(trifluoro-methyl)cyclopropyl]pyrimidin-5-yl]azetidin-1-yl]propyl]oxazolidin-2-one] was 481 nM.
Compound `O=C1N[C@H](CCC(=O)N2CC(c3ccc(C4(C(F)(F)F)CC4)nc3)C2)CO1` [Example 102, (4R)-4-[3-Oxo-3-[3-[6-[1-(trifluoro-methyl)cyclopropyl]-3-pyridyl]azetidin-1-yl]propyl]oxazolidin-2-one] yielded an IC50 of 420 nM. This IC50 and that of the compound before are within 1.5-fold of each other.
The value for `O=C1N[C@H](CCC(=O)N2CC(c3ccc(N4CCC(C(F)(F)F)C4)cn3)C2)CO1` (stereo partly drawn) [Example 103, (4R)-4-[3-Oxo-3-[3-[5-[3-(trifluoro-methyl)pyrrolidin-1-yl]-2-pyridyl]azetidin-1-yl]propyl]oxazolidin-2-one] was 54 nM; that for `CS(=O)(=O)CC1CN(c2ccc(C3CN(C(=O)CC[C@@H]4COC(=O)N4)C3)cc2)C1` [Example 104, (4R)-4-[3-[3-[4-[3-(Methyl-sulfonylmethyl)azetidin-1-yl]phenyl]azetidin-1-yl]-3-oxo-propyl]oxazolidin-2-one] was 177 nM.
Turning to `O=C1N[C@H](CCC(=O)N2CC(c3cnc(N4CCC(C(F)(F)F)C4)cn3)C2)CO1` (stereo partly drawn) [Example 105, (4R)-4-[3-Oxo-3-[3-[5-[3-(trifluoro-methyl)pyrrolidin-1-yl]pyrazin-2-yl]azetidin-1-yl]propyl] oxazolidin-2-one], half-maximal inhibition (IC50) was put at 43 nM.
The value for `O=C1N[C@H](CCC(=O)N2CC(c3ncc(N4CCC(C(F)(F)F)C4)cn3)C2)CO1` (stereo partly drawn) [Example 106, (4R)-4-[3-Oxo-3-[3-[5-[3-(trifluoro-methyl)pyrrolidin-1-yl]pyrimidin-2-yl]azetidin-1-yl]propyl]oxazolidin-2-one] was 729 nM.
`O=C1N[C@H](CCC(=O)N2CC(c3cnc(N4CCC(C(F)(F)F)C4)nc3)C2)CO1` (stereo partly drawn) [Example 107, (4R)-[3-Oxo-3-[3-[2-[3-(trifluoro-methyl)pyrrolidin-1-yl]pyrimidin-5-yl]azetidin-1-yl]propyl]oxazolidin-2-one] yielded an IC50 of 216 nM.
`CS(=O)(=O)c1ccc(-c2ccc(C3CN(C(=O)CC[C@@H]4COC(=O)N4)C3)nc2)c(Cl)c1` [Example 108, (4R)-4-[3-[3-[5-(2-Chloro-4-methylsulfonyl-phenyl)-2-pyridyl]azetidin-1-yl]-3-oxo-propyl]oxazolidin-2-one] gave an IC50 of 7 nM. This IC50 lies about 31-fold lower than the previous one.
In the case of `O=C1N[C@H](CCC(=O)N2CC(c3cccc(C4(C(F)(F)F)CC4)c3)C2)CO1` [Example 109, (4R)-4-[3-Oxo-3-[3-[3-[1-(trifluoromethyl)cyclopropyl]phenyl]azetidin-1-yl]propyl]oxazolidin-2-one], the IC50 worked out at 39 nM.
As for `CS(=O)(=O)c1ccc(-c2cnc(C3CN(C(=O)CC[C@@H]4COC(=O)N4)C3)cn2)c(Cl)c1` [Example 110, (4R)-4-[3-[3-[5-(2-Chloro-4-methylsulfonyl-phenyl)pyrazin-2-yl]azetidin-1-yl]-3-oxo-propyl]oxazolidin-2-one], half-maximal inhibition (IC50) required 70 nM.
For `CC(C)(C)S(=O)(=O)c1ccc(C2CN(C(=O)CC[C@@H]3COC(=O)N3)C2)cn1` [Example 111, (4R)-4-[3-[3-(6-tert-Butylsulfonyl-3-pyridyl)azetidin-1-yl]-3-oxo-propyl]oxazolidin-2-one] the value was 1170 nM; for `O=C1N[C@H](CCC(=O)N2CC(c3ncc(-c4ccc(Cl)cc4F)cn3)C2)CO1` [Example 112, (4R)-4-[3-[3-[5-(4-Chloro-2-fluoro-phenyl)pyrimidin-2-yl]azetidin-1-yl]-3-oxo-propyl]oxazolidin-2-one], 43 nM.
Compound `O=C1N[C@H](CCC(=O)N2CC(c3ccc(-c4ccc(Cl)cc4F)cn3)C2)CO1` [Example 113, (4R)-4-[3-[3-[5-(4-Chloro-2-fluoro-phenyl)-2-pyridyl]azetidin-1-yl]-3-oxo-propyl]oxazolidin-2-one] returned an IC50 of 3 nM.
Regarding `O=C1N[C@H](CCC(=O)N2CC(c3ccc(-c4ccc(Cl)cc4Cl)cn3)C2)CO1` [Example 114, (4R)-4-[3-[3-[5-(2,4-Dichloro-phenyl)-2-pyridyl]azetidin-1-yl]-3-oxo-propyl]oxazolidin-2-one], the IC50 was determined as 0.18 nM. This IC50 is about 17-fold lower than that of the compound before.
Turning to `CS(=O)(=O)c1cc(Cl)cnc1-c1ccc(C2CN(C(=O)CC[C@@H]3COC(=O)N3)C2)cc1` [Example 115, (4R)-4-[3-[3-[4-(5-Chloro-3-methylsulfonyl-2-pyridyl)phenyl]azetidin-1-yl]-3-oxo-propyl]oxazolidin-2-one], the IC50 was found to be 3 nM.
`CS(=O)(=O)c1ccc(-c2ccc(C3CN(C(=O)CC[C@@H]4COC(=O)N4)C3)cn2)c(Cl)c1` [Example 116, (4R)-4-[3-[3-[6-(2-Chloro-4-methylsulfonyl-phenyl)-3-pyridyl]azetidin-1-yl]-3-oxo-propyl]oxazolidin-2-one] came in with a half-inhibitory concentration (IC50) of 160 nM.
`CS(=O)(=O)c1cc(Cl)ccc1-c1ccc(C2CN(C(=O)CC[C@@H]3COC(=O)N3)C2)cn1` [Example 117, (4R)-4-[3-[3-[6-(4-Chloro-2-methylsulfonyl-phenyl)-3-pyridyl]azetidin-1-yl]-3-oxo-propyl]oxazolidin-2-one] displayed an IC50 of 10 nM. Against the preceding compound, the IC50 is about 16-fold lower.
For `CS(=O)(=O)c1cc(Cl)ncc1-c1ccc(C2CN(C(=O)CC[C@@H]3COC(=O)N3)C2)cc1` [Example 118, (4R)-4-[3-[3-[4-(6-Chloro-4-methylsulfonyl-3-pyridyl)phenyl]azetidin-1-yl]-3-oxo-propyl] oxazolidin-2-one] the value was 12 nM; for `O=C1N[C@H](CCC(=O)N2CC(c3ccc(-c4cnc(C(F)(F)F)cn4)cc3)C2)CO1` [Example 119, (4R)-4-[3-Oxo-3-[3-[4-[5-(trifluoromethyl)pyrazin-2-yl]phenyl]azetidin-1-yl]propyl] oxazolidin-2-one], 33 nM.
